Data published in patent US6593373B2, “Pharmaceutical compositions of O-desmethyl-N-mono-desmethyl-tramadol” (Gruenenthal GmbH, priority 2000, dated 2003).
pIC50: −log10 of the molar value. Where two headings read alike, the source gives them in different places.

Key:
mice tail-flick = test: Tail-flick test; details: for Tail-Flick, mouse ED50 i.c.v. / Tail-Flick, mouse ED50 i.v. / Analgesia in tail-flick test, in words: mouse
Procedure: Analgesia was tested in vivo in the mice tail-flick test. M5 was first intravenously administered and then directly into a brain ventricle.

[1] = test system: mice phenylquinone writhing; test: Phenylquinone writhing test; format: in vivo
Procedure: Analgesia was tested in vivo in the mice phenylquinone writhing test. M5 was intravenously administered.

[2] = test system: neuronal uptake of norepinephrine (NE); test: Noradrenaline uptake inhibition, in vitro rat brain; format: biochemical; details: for pIC50: read-out: Noradrenalin uptake IC50
Text: The inhibition of neuronal uptake of monoamines (norepinephrine; NE) was investigated in in vitro rat brain binding experiments.

[3] = test system: neuronal uptake of Serotonin (5-HT); format: biochemical; details: rat brain
Text: The inhibition of neuronal uptake of Serotonin (5-HT) was investigated in in vitro rat brain binding experiments.

μ-opioid receptor = biological target: T1, μ-opioid receptor (Rattus norvegicus, UniProt P33535); test: μ-opioid (Naloxon) binding, in vitro rat brain
T1 construct: from tissue; host or cells: rat brain
Text: The μ-opioid receptor binding was investigated in in vitro rat brain binding experiments using naloxone.

[4] = rat brain, naloxone, read-out: Naloxone binding IC50

T1 sequence (P33535 whole entry): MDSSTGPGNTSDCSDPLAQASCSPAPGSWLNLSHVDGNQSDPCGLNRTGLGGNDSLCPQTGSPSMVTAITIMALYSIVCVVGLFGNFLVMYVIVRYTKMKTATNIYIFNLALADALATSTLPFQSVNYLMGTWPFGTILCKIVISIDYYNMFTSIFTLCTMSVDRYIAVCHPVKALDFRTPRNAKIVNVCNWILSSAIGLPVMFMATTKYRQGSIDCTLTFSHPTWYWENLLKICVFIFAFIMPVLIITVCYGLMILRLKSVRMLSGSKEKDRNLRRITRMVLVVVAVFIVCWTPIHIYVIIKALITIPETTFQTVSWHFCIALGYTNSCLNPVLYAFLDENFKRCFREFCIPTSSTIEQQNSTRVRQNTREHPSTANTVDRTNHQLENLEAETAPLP

SMILES | ED50 (mice tail-flick; Mus musculus, iv, read-out: Tail-Flick, mouse ED50 i.v.) | Tail-Flick, mouse ED50 i.c.v. (mice tail-flick) | Writhing, mouse ED50 i.c.v. [1] | ED50 ([1]; iv, mouse) | Tail-Flick, mouse ED50 i.v. (mice tail-flick) | pIC50 [2] | Writhing, mouse ED50 i.v. [1] | pIC50 [3] | Penetration of the blood brain barrier, in words (mice tail-flick; concluded from i.v. versus i.c.v. analgesia) | Analgesia in tail-flick test, in words (mice tail-flick; direct administration into a brain ventricle) | Analgesia in tail-flick test, in words (mice tail-flick; intravenously administered) | Inhibition of norepinephrine uptake, in words [2] | Analgesia in writhing test, in words ([1]; mouse, intravenous administration) | pIC50 (μ-opioid receptor) | μ-opioid receptor affinity (naloxone binding), in words (μ-opioid receptor; rat brain) | Inhibition of serotonin uptake, in words [3] | pIC50 (μ-opioid receptor; [4])
COc1cccc([C@@]2(O)CCCC[C@@H]2CN(C)C)c1 (racemic) [Tramadol, (1RS, 2RS)-2[(dimethylamino)methyl]-1-(3-methoxyphenyl)-cyclohexanol] | 13.6 mg/kg | 98.0 μg/animal | 67.3 μg/animal | 6.93 mg/kg | – | – | – | – | – | – | – | – | – | – | – | – | –
CN(C)C[C@H]1CCCC[C@]1(O)c1cccc(O)c1 [M1] | – | 2.1 μg/animal | 0.58 μg/animal | – | 1.90 mg/kg | 4.38 | 0.49 mg/kg | 4.62 | – | – | – | – | – | – | – | – | –
CNCC1CCCCC1(O)c1cccc(O)c1 (stereo not drawn) [M5, O-desmethyl-N-mono-desmethyl-tramadol] | – | 32.4 μg/animal | 4.99 μg/animal | – | no effect | 4.88 | no effect | 3.92 | poor penetration of the blood brain barrier | a pronounced effect was seen | no pronounced effect | no pronounced effect | no pronounced effect | 6.51 | strong enough to induce in vivo analgesia | no pronounced effect | –
COc1cccc([C@@]2(O)CCCC[C@@H]2CN)c1 [M3] | – | – | – | – | no effect | 4.32 | no effect | 4.31 | – | – | – | – | – | – | – | – | 3.69
NC[C@H]1CCCC[C@]1(O)c1cccc(O)c1 [M4] | – | – | – | – | no effect | 3.98 | no effect | 3.43 | – | – | – | – | – | – | – | – | 4.62
CNCC1CCCCC1(O)c1cccc(OC)c1 (stereo not drawn) [M2] | – | – | – | – | no effect | 5.37 | no effect | 4.98 | – | – | – | – | – | – | – | – | 4.31
